Reference: paper PMC4834639, “Steroid binding to Autotaxin links bile salts and lysophosphatidic acid signalling” (Nature Communications, 2016)
“Also recorded” adds a separate entry of the source. Where two headings read alike, the source gives them in different places.

Legend:
hATX [1] = molecular target: T1, hATX (Homo sapiens, UniProt Q13822)
Protocol: (§1) All biochemical studies were performed with hATX. ATX lysoPLD activity was measured by choline release from LPC[47]. […] The relative amount of released choline was measured by HVA fluorescence in a 96-well plate (Corning). Fluorescent intensity was determined at λex/λem=320/450 nm every 30 s for 90 min with a Fluorostar plate reader (BMG Labtech). Data analysis was performed using GraphPad Prism.
(§2) The experiments for determining IC50 for different bile salt inhibitors were performed by adding the named bile salt and performing serial threefold dilutions; for each bile salt concentration, the velocity of the reaction was monitored as a function of time in the lysoPLD assay as described above.
(§3) For initial comparison between competitive, uncompetitive and non-competitive inhibition by TUDCA, using the LPC and the FS3 assays, we measured the relative velocity for increasing LPC or FS3 substrate concentrations, for no-inhibitor and for three different inhibitor concentrations. The relative velocity for each data point was measured by linear regression as described above, and a Michaelis–Menten curve was created for each inhibitor concentration. We then used the following equations to describe each mode of inhibition:
(§4) where in addition to previous definitions that can be derived from equations (4–6), we define Part as the partiality of the inhibition and α as an estimated constant that determines mechanism: if α=1, the formula becomes identical to equation (4) and the inhibition mode is noncompetitive; if a is very large, then the model approaches a competitive model equation (3); if a is very small but greater than zero, the model approaches an uncompetitive model.
(§5) This procedure allowed a more robust fit to determine all parameters from all available experiments.
(§6) All modelling was performed using the regression analysis tools within the Graphpad/Prism software. The values of all derived parameters indicate mean values as obtained by nonlinear regression analysis using the formulas listed above; triplicate data were used as separate observations during the fit; ±values indicate the standard error of the mean.

hATX [2] = molecular target: T1, hATX; test: biochemical
Protocol: as §1, §2, §3, §4, §5, §6

[3] = test system: ATX-mediated LPAR1 endocytosis in HeLa cells; test: LPA1 receptor internalization assay in GFP-LPA1-transfected HeLa cells; details: 0.1 μM LPC, 5 nM ATX, 500 μM TUDCA, 15 min, P<0.001
Protocol: HeLa cells (obtained from American Type Culture Collection) were grown in DMEM supplemented with 10% fetal bovine serum at 37 °C under 5% CO2. For LPA1 internalization studies, HeLa cells were transient transfected with GFP-LPA1 plasmid using X-tremeGene 9 (Roche) reagent according to the manufacturer's instructions. At 10 h after transfection, the cells were rinsed with SF-DMEM and incubated in the same medium for 16–24 h before further treatments. […] Slides were examined on a Leica TCS-SP5 confocal microscope (× 62 objective) and analysed using ImageJ software.

hATX [4] = molecular target: T1, hATX; test: Mass spectrometry analysis of sterols associated with recombinant ATX preparation; parameters: made in house; host or cells: HEK 293 Flp-In cells; details: for amount found in ATX preparation: representative ATX preparation containing 2.4 pmol ATX; for Ratio to ATX: representative ATX preparation, ATX = 1.0
Protocol: Recombinant hATX preparations or buffer controls were extracted using acidified organic solvents as reported previously for lipid extractions from cells and tissues[45] with inclusion of deuterium-labelled cholesterol of oxysterol internal standards as detailed below. Samples were evaporated to dryness and reconstituted in methanol for mass spectrometry analysis.
Cholesterol and hydroxysterols were analysed using an AB Sciex 4000-Qtrap hybrid linear ion trap triple quadrupole mass spectrometer in multiple reaction monitoring mode connected to a Shimadzu HPLC. Cholesterol was analysed in positive multiple reaction monitoring mode using a Machery Nagel Nucleodur C8 gravity column, 5 μm, 125 × 2 mm^2 with a flow rate of 0.5 ml min^−1. Solvent A consists of 75/25 of methanol/water with 0.5% formic acid and 0.1% 5 mM ammonium formate and solvent B consists of 99/1 of methanol/water with 0.5% formic acid and 0.1% 5 mM ammonium formate. The cholesterol measurements were conducted exactly as reported previously with quantification accomplished by reference to a deuterated internal standard. Oxysterols were measured after dimethylglycine (DMG) derivatization using an Agilent Zorbax Eclipse XDB-C18 column, 5 μm, 4.6 × 150 mm^2 with a flow rate of 0.5 ml min^−1. Solvent A was 85% methanol with 5 mM ammonium acetate and solvent B consisted of 80:20:2 of chloroform/water/50 mM ammonium acetate. In brief, we obtained authentic standards for 25-, 24-, 27, 7-α and 4-β OH cholesterol and deuterated 25-OH cholesterol and prepared DMG derivatives exactly as previously described. We obtained product ion spectra from the doubly and singly charged DMG derivatives of these compounds that were essentially identical to those reported previously with some differences in product ion abundances that are likely attributable to differences between our mass spectrometer system and that used by Jiang et al.[46]. […] Quantification of oxysterols was accomplished by reference to the deuterated 25-OH cholesterol internal standard as explained below.
Cholesterol was detected in all ATX preparations analysed.
As reported by Jiang et al.[46], bis-DMG derivatives of hydroxylated cholesterol generate doubly charged molecular ions (m/z=287.3), which fragment to produce protonated DMG (m/z=104.1) and production of singly charged mono-DMG derivative ions (m/z=367.2). […] Accordingly, we established a selected ion-monitoring mode HPLC LC MS/MS assay that monitored these ion pairs. […] Quantification was accomplished by comparing the integrated peak area for the […]/104.1 ion pair to that of the corresponding ion pair from the deuterated 25-OH cholesterol internal standard. That ATX preparation analysed contained 1.48 pmol of 7-OH cholesterol.

[5] = LPC(18:1) substrate, result in words

Structure (SMILES): C[C@H](CCC(=O)NCC(=O)O)[C@H]1CC[C@H]2[C@@H]3[C@H](O)C[C@@H]4C[C@H](O)CC[C@]4(C)[C@H]3CC[C@]12C [GCDCA, Glycochenodeoxycholic acid]
- effect on ATX-mediated LPC hydrolysis (hATX [1]; [5]): did not significantly change potency
- IC50 (hATX [2]): 8.1 ± 0.7 µM

Structure (SMILES): C[C@H](CCC(=O)NCCS(=O)(=O)O)[C@H]1CC[C@H]2[C@@H]3CC[C@@H]4C[C@H](O)CC[C@]4(C)[C@H]3C[C@H](O)[C@]12C [TDCA, Taurodeoxycholic acid]
- effect on ATX-mediated LPC hydrolysis (hATX [1]; [5]): abrogate the inhibitory activity
- IC50 (hATX [2]): > 1000 µM

Structure (SMILES): C[C@]12C=CC(=O)C=C1CC[C@@H]1[C@@H]2[C@@H](O)C[C@@]2(C)[C@H]1CC[C@]2(O)C(=O)CO [prednisolone]
- effect on ATX-mediated LPC hydrolysis (hATX [1]; [5]): no effect

Structure (SMILES): C[C@H](CCC(=O)O)[C@H]1CC[C@H]2[C@@H]3[C@@H](O)C[C@@H]4C[C@H](O)CC[C@]4(C)[C@H]3CC[C@]12C [UDCA, Ursodeoxycholic acid]
- IC50 (hATX [2]): 8.8 ± 0.5 µM

Structure (SMILES): C[C@H](CCC(=O)NCCS(=O)(=O)O)[C@H]1CC[C@H]2[C@@H]3[C@@H](O)C[C@@H]4C[C@H](O)CC[C@]4(C)[C@H]3CC[C@]12C [TUDCA, Tauroursodeoxycholic acid]
- ATX-mediated LPAR1 endocytosis (number of GFP-LPA1 endosomes) [3]: reduces ATX-mediated LPAR1 endocytosis; also recorded: reduces the number of endosomes

Structure (SMILES): C[C@]12CC[C@H]3[C@@H](CCC4=CC(=O)CC[C@@]43C)[C@@H]1CC[C@@H]2O [testosterone]
- effect on ATX-mediated LPC hydrolysis (hATX [1]; [5]): no effect

Structure (SMILES): C[C@H](CCCC(C)(C)O)[C@H]1CC[C@H]2[C@@H]3[C@H](O)C=C4C[C@@H](O)CC[C@]4(C)[C@H]3CC[C@]12C [DHCS, 7α,25-Dihydroxycholesterol]
- effect on ATX-mediated LPC hydrolysis (hATX [1]; [5]): no effect
- IC50 (hATX [2]): > 1000 µM

Structure (SMILES): CC(C)CCC[C@@H](C)[C@H]1CC[C@H]2[C@@H]3CC=C4C[C@@H](O)CC[C@]4(C)[C@H]3CC[C@]12C [Cholesterol]
- amount found in ATX preparation (hATX [4]): 0.35 pmol
- Ratio to ATX (hATX [4]): 0.15

Structure (SMILES): C[C@H](CCC(=O)NCCS(=O)(=O)O)[C@H]1CC[C@H]2[C@@H]3[C@H](O)C[C@@H]4C[C@H](O)CC[C@]4(C)[C@H]3C[C@H](O)[C@]12C [TCA, Taurocholic acid]
- effect on ATX-mediated LPC hydrolysis (hATX [1]): abrogate the inhibitory activity
- IC50 (hATX [2]): > 1000 µM

Structure (SMILES): CC(C)CCC[C@@H](C)[C@H]1CC[C@H]2[C@@H]3[C@H](O)C=C4C[C@@H](O)CC[C@]4(C)[C@H]3CC[C@]12C [7HCS, 7α-hydroxycholesterol]
- effect on ATX-mediated LPC hydrolysis (hATX [1]; [5]): no effect
- amount found in ATX preparation (hATX [4]): 1.48 pmol
- Ratio to ATX (hATX [4]): 0.62

Structure (SMILES): C[C@@H]1C[C@H]2[C@@H]3CCC4=CC(=O)C=C[C@]4(C)[C@@]3(F)[C@@H](O)C[C@]2(C)[C@@]1(O)C(=O)CO [dexamethasone]
- effect on ATX-mediated LPC hydrolysis (hATX [1]; [5]): no effect
